Results reported in article PMC2655357 (The Febs Journal, 2008).

Molecular target: AaIspE (Aquifex aeolicus, UniProt O67060)
Assay: crystal structure
Assay type: binding
Settings: co-crystallized with 4 mM AMP-PNP and 4 mM CDP; substrate (CDPME) site

Chain of AaIspE (O67060 whole entry): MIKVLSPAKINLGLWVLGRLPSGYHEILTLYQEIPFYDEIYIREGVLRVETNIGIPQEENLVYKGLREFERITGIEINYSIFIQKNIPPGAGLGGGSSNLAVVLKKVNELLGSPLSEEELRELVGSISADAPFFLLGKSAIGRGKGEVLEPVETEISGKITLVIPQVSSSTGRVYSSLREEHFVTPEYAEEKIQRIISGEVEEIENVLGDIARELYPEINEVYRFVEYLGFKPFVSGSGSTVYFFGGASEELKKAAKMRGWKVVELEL

Nc1ccn([C@@H]2O[C@H](COP(=O)(O)OP(=O)(O)O)[C@@H](O)[C@H]2O)c(=O)n1 [CDP]
crystal structure (complex I, 2.1 Å): In complex I, CDP displays a single conformation in molecule A and three in molecule B
